Results: US20250302765A1, “TRIACETYL ANDROGRAPHOLIDE NANOCRYSTAL AND PREPARATION METHOD AND APPLICATION THEREOF” (Henan University, priority 2024, published 2025)

Experiments:
[1] = In-vitro release degree in simulated pulmonary fluid (dialysis bag, HPLC); type: physicochemical; conditions: simulated pulmonary fluid pH 7.4, 37° C.
Protocol: With the triacetyl andrographolide nanocrystal prepared in Example 1 as an experimental subject, an activated dialysis bag with a molecular weight cut-off of 8000-14000 Da was taken, 5 mL of a simulated pulmonary fluid was added into the dialysis bag, the triacetyl andrographolide nanocrystal (0.5 mg by triacetyl andrographolide) was precisely weighed and dispersively suspended in the above simulated pulmonary fluid, two ends were tightened, then the dialysis bag was put into a conical flask containing 100 mL of a simulated pulmonary fluid in-vitro release medium (composition of the medium as shown in Table 1), the conical flask was placed in a constant-temperature gas bath shaker (37° C., 120 r/min), 2 mL of a released liquor was taken at each of different time points (0.5 h, 1 h, 2 h, 4 h, 6 h, 8 h, 12 h, 24 h, 36 h and 48 h) and was filtered through a 0.22 μm filter membrane, subsequence filtrates were taken to determine drug concentrations by adopting an HPLC method, and at the same time, the release medium was supplemented with 2 mL of an isothermal simulated pulmonary fluid. A cumulative release percentage was calculated according to determined results, and a release curve of the nanocrystal was drawn. […]

[2] = parameters: species or system SD rats; conditions: rat, in vivo, po, 200 mg/kg
Protocol: The triacetyl andrographolide nanocrystal obtained in Example 1 was adopted, and a total of 12 SD rats were used as test objects (half female and half male, 200±20 g).
The rats were randomly divided into 2 groups (n=6, half female and half male) by body weight before a test was started. The test was carried out after fasting without water-deprivation for 12 h, one group was fed with a triacetyl andrographolide active pharmaceutical ingredient suspension (dosage of 200 mg/kg) via intragastric administration, and the other group was fed with a triacetyl andrographolide nanocrystal suspension (50 mg/kg by triacetyl andrographolide) via intragastric administration.
With an active pharmaceutical ingredient as reference, relative bioavailability of the triacetyl andrographolide nanocrystal was calculated according to the following formula:
[formula] • where AUC0-t, nanocrystal and AUC0-t, active pharmaceutical ingredient corresponded to areas under the plasma concentration-time curves at a moment 0-t of the triacetyl andrographolide nanocrystal and the active pharmaceutical ingredient respectively; and
Doseactive pharmaceutical ingredient and Dosenanocrystal corresponded to intragastric administration dosages of the triacetyl andrographolide active pharmaceutical ingredient and the nanocrystal respectively.
• where MRT(0-t) is a mean value of in-vivo retention time of drug molecules, representing time required for eliminating 63.2% of drugs in vivo; • T1/2 is a terminal elimination half-life, which is time required for a terminal phase plasma concentration to decrease by half; • Tmax is time required to reach a peak concentration of drug after administration, this parameter reflects a speed at which a drug enters the body, and the faster the absorption rate, the shorter the time to peak; • Cmax is a peak concentration of drug, the highest value of a plasma concentration occurring after administration, and this parameter is an important indicator reflecting a rate and degree of drug absorption in the body; • Vd is a proportionality constant between a drug dosage in the body and a plasma concentration when a drug reaches dynamic equilibrium in the body, usually with Las the unit, and this parameter reflects the degree of a distribution range of the drug in the body, with higher values indicating the wider distribution; and an apparent volume of distribution is numerically obtained by a ratio of a clearance rate to a terminal elimination rate; • F is bioavailability, a measure for a speed and degree at which a drug is absorbed into blood circulation, and is an important indicator for evaluating a degree of drug absorption; and the bioavailability may be divided into absolute bioavailability and relative bioavailability, the former is used to compare an absorption difference between two administration routes, while the latter is used to evaluate an absorption difference between two preparations; and • CL is a clearance rate, a value of an apparent volume of distribution of drugs cleared from the body per unit time, usually with L/h as the unit, and this parameter is an important parameter reflecting the body's drug disposal characteristics and is closely related to physiological factors; and the clearance rate is obtained according to a ratio of a dosage to AUC(0-∞).

[3] = test system: LPS-induced RAW264.7 cell; conditions: supernatant of LPS-induced RAW264.7 cell culture fluid; cited from earlier work
[4] = test system: rabbits with endotoxic shock; conditions: serums of rabbits with endotoxic shock; cited from earlier work
[5] = in vivo; cited from earlier work

For `C=C1CC[C@@H]2[C@](C)(COC(C)=O)[C@H](OC(C)=O)CC[C@@]2(C)[C@@H]1C/C=C1/C(=O)OC[C@H]1OC(C)=O` [active pharmaceutical ingredient, triacetyl andrographolide], the cumulative release percentage ([1]; 12 h) was 39%, the cumulative release percentage ([1]; 48 h) was 42% and the “AUC(0-t)” value [2] was 1924 ± 277.9 ng·h/mL. The CL/F [2] was 2000 mL/min/kg, the Cmax [2] was 495.1 ± 172.6 ng/mL and the “MRT(0-t)” value [2] was 8.07 ± 0.22 h. For the same compound, the T1/2 [2] was 4.79 ± 1.81 h, the Tmax [2] was 6.67 ± 0.47 h and the Vd [2] was 800 ± 360 L/kg. For the same compound, the “content of IL-1β” value [3] was “can reduce”, the “content of TNF-α” value [3] was “can reduce” and the “content of IL-1β” value [4] was “can reduce”. The “content of TNF-α” value [4] was “can reduce”, the absolute bioavailability [5] was 7.19% and the “absolute bioavailability relative to that of andrographolide” value [5] was “more than 7 times”.
